Experimental findings from patent US20090306053A1, “Highly selective rho-kinase inhibitor” (priority 2005, published 2009) are described below.

What all share (assay type): biochemical
Test [1] addresses T1, Recombinant human Src (Homo sapiens, UniProt P12931).
T1 construct: purchased Upstate
In words: Src kinase assay (Kinase-Glo ATP consumption). The conditions noted are these: 0.5 μM ATP; read-out: Kinase Inhibiting Activity (IC50) Src. On the procedure:
Recombinant human Src (Upstate) was used to evaluate its activity to phosphorylate a substrate peptide (KVEKIGEGTYGVVYK, Upstate).
(§1) In a system of the total volume of 50 μL, the reaction of the above-mentioned enzyme (6 Units) was carried out at room temperature for 80 minutes in the presence of 40 mM of MOPS-NaOH (pH 7.5), 10 mM of magnesium chloride, 25 mM of manganese chloride, 300 μM of the above peptide, and 0.5 μM of ATP. After the kinase reaction, the luminescence intensity corresponding to the amount of ATP in the reaction system was measured using a luciferase reagent (Kinase-Glo Luminescent Kinase Assay kit, Promega) with a chemiluminescence measurement apparatus (MicroLumat, Berthold Technologies). The amount of ATP consumed by the phosphorylation reaction was calculated by comparison with the luminescence intensity in the system when the kinase reaction was not carried out.
(§2) With this system, the kinase reaction was carried out in the presence of a compound at various concentrations, and the IC50 value of the compound was determined based on the resulting compound concentration-response curve for ATP consumption.

Test [2] concerns the target T2, Purified rat CaMKII (Rattus norvegicus, UniProt P11275).
T2 construct: purchased Upstate
In words: CaMKII kinase assay (Kinase-Glo ATP consumption). The conditions noted are these: 1 μM ATP; read-out: Kinase Inhibiting Activity (IC50) CaMKII. Here is the method: (§3) Purified rat CaMKII (containing CaMKIIα and small amounts of β, γ, and δ isoforms, Upstate) was used to evaluate its activity to phosphorylate a substrate peptide (KKALRRQETVDAL, Upstate).
(§4) In a system of the total volume of 50 μL, the reaction of the above-mentioned enzyme (33 ng) was carried out at room temperature for 60 minutes in the presence of 50 mM of Tris-HCl (pH7.5), 10 mM of magnesium chloride, 2 mM of calcium chloride, 0.04 mg/mL of BSA, 16 μg/mL of purified bovine brain calmodulin (Sigma), 0.5 mM of DTT, 50 µM of the above peptide, and 1 μM of ATP. After the kinase reaction, the luminescence intensity corresponding to the amount of ATP in the reaction system was measured using a luciferase reagent (Kinase-Glo Luminescent Kinase Assay kit, Promega) with a chemiluminescence measurement apparatus (MicroLumat, Berthold Technologies). The amount of ATP consumed by the phosphorylation reaction was calculated by comparison with the luminescence intensity in the system when the kinase reaction was not carried out.
as §2
(§5) The ROCKII-inhibiting activity of a compound to be tested was defined as 1.0, and the inhibitory activities of the compound against kinases (PKA, PKG, CaMKII, and AuroraA) other than ROCKII were calculated as relative ratios to the ROCKII-inhibiting activity, based on the IC50 values calculated using the above-described evaluation system.

In test [3] the test system is Purified rat CaMKII. In words: CaMKII kinase assay (Kinase-Glo ATP consumption). The conditions noted are these: relative ratio to ROCKII (=1.0), based on IC50 values. Here is the method:
as §3, §4, §2, §5

Test [4] has as its target T3, Purified bovine PKGα (Bos taurus, UniProt P00516).
T3 construct: Purified bovine PKGα (Promega); purchased Promega
T3 sequence (P00516 1-671): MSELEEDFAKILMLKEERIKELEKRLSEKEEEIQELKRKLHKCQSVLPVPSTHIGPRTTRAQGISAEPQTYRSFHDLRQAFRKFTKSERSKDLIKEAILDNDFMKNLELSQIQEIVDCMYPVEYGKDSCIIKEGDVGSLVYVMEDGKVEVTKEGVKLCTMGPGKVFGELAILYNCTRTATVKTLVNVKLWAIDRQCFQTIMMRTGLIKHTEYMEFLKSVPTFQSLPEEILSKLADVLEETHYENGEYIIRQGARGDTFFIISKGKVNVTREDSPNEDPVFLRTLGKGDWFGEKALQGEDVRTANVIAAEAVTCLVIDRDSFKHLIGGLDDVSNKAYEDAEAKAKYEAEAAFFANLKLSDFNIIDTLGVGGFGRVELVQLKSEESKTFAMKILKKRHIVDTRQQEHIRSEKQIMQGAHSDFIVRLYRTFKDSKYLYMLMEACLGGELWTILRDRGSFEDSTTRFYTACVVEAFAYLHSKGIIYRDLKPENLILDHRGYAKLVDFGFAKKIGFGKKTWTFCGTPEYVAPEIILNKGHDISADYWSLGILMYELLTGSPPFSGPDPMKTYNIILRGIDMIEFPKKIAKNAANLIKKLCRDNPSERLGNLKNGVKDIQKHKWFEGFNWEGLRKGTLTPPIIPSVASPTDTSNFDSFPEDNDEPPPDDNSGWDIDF
Put plainly: PKG kinase assay (Kinase-Glo ATP consumption). The conditions noted are these: for IC50: 1 μM ATP, read-out: Kinase Inhibiting Activity (IC50) PKG; for Realative Inhibitory Activity PKG: relative ratio to ROCKII (=1.0), based on IC50 values. On the procedure: Purified bovine PKGα (Promega) was used to evaluate its activity to phosphorylate a substrate peptide (RKISASEF, Promega).
as §1, with “(64 ng)” for “(6 Units)”, “Tris-HCl” for “MOPS-NaOH”, “20” for “10”, “10 μM” for “25 mM”, “cGMP (Sigma), 100” for “manganese chloride, 300”, “1” for “0.5”
as §2, §5

Test [5] concerns the target T4, Purified bovine PKA (catalyst subunit) (Bos taurus, UniProt P00517).
T4 construct: Purified bovine PKA (catalyst subunit, Promega); purchased Promega
Put plainly: PKA kinase assay (Kinase-Glo ATP consumption). The conditions noted are these: for IC50: 1 μM ATP, read-out: Kinase Inhibiting Activity (IC50) PKA; for Realative Inhibitory Activity PKA: relative ratio to ROCKII (=1.0), based on IC50 values. On the procedure:
Purified bovine PKA (catalyst subunit, Promega) was used to evaluate its activity to phosphorylate a substrate peptide (LRRASLG, Promega).
In a system of the total volume of 50 μL, the reaction of the above-mentioned enzyme (43 ng) was carried out at room temperature for 20 minutes in the presence of 40 mM of Tris-HCl (pH 7.5), 20 mM of magnesium chloride, 1 mg/mL of BSA, 5 μM of the above peptide, and 1 μM of ATP. After the kinase reaction, the luminescence intensity corresponding to the amount of ATP in the reaction system was measured using a luciferase reagent (Kinase-Glo Luminescent Kinase Assay kit, Promega) with a chemiluminescence measurement apparatus (MicroLumat, Berthold Technologies). The amount of ATP consumed by the phosphorylation reaction was calculated by comparison with the luminescence intensity in the system when the kinase reaction was not carried out.
as §2, §5

For `CNCC(=O)N1CCCN(S(=O)(=O)c2cccc3cncc(F)c23)[C@@H](C)C1.Cl.Cl` [Example 2, 2-(S)-1-(4-fluoroisoquinoline-5-sulfonyl)-2-methyl-4-(N-methylglycyl)homopiperazine dihydrochloride], the concentration for half-maximal inhibition (IC50) in test [1] was over 100 µM; in test [2] it was 26.7 µM; in test [4] it was 28 µM; in test [5], over 100 µM. Moreover, in test [3], the “Realative Inhibitory Activity CaMKII” value is 890. In test [4], the “Realative Inhibitory Activity PKG” value was 933. Also, in test [5], the “Realative Inhibitory Activity PKA” value was over 3000.
In the case of “2-(S)-1-(4-fluoroisoquinoline-5-sulfonyl)-4-glycyl-2-methylhomopiperazine dihydrochloride [Example 1]”, the IC50 in test [1] was over 100 µM; in test [2], 22.9 µM; in test [4], 63.5 µM; in test [5], over 100 µM. Further, the “Realative Inhibitory Activity CaMKII” value in test [3] is on record as 763. In addition, the “Realative Inhibitory Activity PKG” value in test [4] stood at 2117. Also, in test [5], the “Realative Inhibitory Activity PKA” value is given as over 3000.
